US6673937B2, “Syntheses and methods of use of new antimitotic agents” (The University of Pittsburgh, priority 2000, dated 2004)
Where two headings read alike, the source gives them in different places.

How the values were obtained:
MCF-7 cells = assay: Antiproliferative assay, MCF-7 cells; assay type: cell-based; conditions: read-out: MCF-7 50% cell growth inhibition
Experimental: Two widely used human breast cancer cell lines were evaluated for sensitivity to the cytotoxic effects of the naphthoquinone spiroketals. MCF-7 cells were originally derived from an adenocarcinoma of the breast and retain several characteristics of differentiated mamnmary epithelium including the ability to process estradiol via cytoplasmic estrogen receptors. MCF-7 cells express the tumor suppressor gene product p53, which is required for the programmed cell death or apoptosis caused by many agents. (Foster, B. A.; Coffey, H. A.; Morin, M. J.; Rastinejad, F. Science 1999, 286, 2507).
The proliferation of MCF-7, MDA-MB-231 and SV40 transformed mouse embryonic fibroblasts was measured by a previously described colorimetric assay (Wipf P, Jung J-K, Rodriguez S, Lazo JS Synthesis and biological evaluation of Deoxypreussomerin A and Palmarumycin CP 1 and related naphthoquinone spiroketals. Tetrahedron 57:283-296, 2001 and Vogt A, Rice RL, Settineri CE, Yokokawa F, Yokokawa S, Wipf P and Lazo JS (1998) Disruption of insulin-like growth factor-I signaling and down-regulation of Cdc2 by SC-ααδ9, a novel small molecule antisignaling agent identified in a targeted array library. J Pharmacol Exptl Therap 287:806-813.). Briefly, the inventors seeded 4,000-6,000 cells per well in microtiter plates. Cells were allowed to attach overnight and treated with vehicle or compounds for 72 h, after which the medium was replaced with serum free medium containing 0.1% 3-[4,5-dimethylthiazol-2-yl]-2,5-diphenyl tetrazolium bromide. Plates were incubated for 3 hours in the dark and total cell number was determined by spectrophotometrically at 540 nm as previously described (Vogt A, Rice RL, Settineri CE, Yokokawa F, Yokokawa S, Wipf P and Lazo JS (1998) Disruption of insulin-like growth factor-1 signaling and down-regulation of Cdc2 by SC-ααδ9, a novel small molecule antisignaling agent identified in a targeted array library. J Pharmacol Exptl Therap 287:806-813.). […] Cells were maintained in RPMI 1640 medium containing 10% fetal bovine serum and the paclitaxel-resistant cells also contained 17 nM paclitaxel and 10 μM verapamil. Cells were plated (2,000/well) in 96-well plates and allowed to attach and grow for 72 hours (paclitaxel and verapamil were removed from resistant cell medium two weeks prior to this plating). They were then treated with 0.5% DMSO vehicle control or 0.08-10 μM compound. The number of cells was determined spectrophotometrically at 490 nm minus absorbance at 630 nm after exposure to 3-(4,5-dimethylthiazol-2-yl)-5-(3-carboxymethoxyphenyl)-2-(4-sulfophenyl)-2H-tetrazolium and N-methyldibenzopyurazine methyl sulfate. […]

Trx-1/TrxR = biological target: T1, Trx-1/TrxR (Homo sapiens, UniProt P10599+Q16881); assay: Trx-1/TrxR-dependent insulin reducing assay; assay type: biochemical; conditions: for IC50: calculated from 5 concentrations (0.1 to 50 μM)
T1 construct: Thioredoxin reductase was purified from human placenta as previously described; made in house
T1 sequence (P10599 1-105): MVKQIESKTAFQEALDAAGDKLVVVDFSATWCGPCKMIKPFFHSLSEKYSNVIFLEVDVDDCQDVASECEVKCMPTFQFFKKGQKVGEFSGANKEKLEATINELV
T1 sequence (Q16881 1-499 isoform Q16881-5): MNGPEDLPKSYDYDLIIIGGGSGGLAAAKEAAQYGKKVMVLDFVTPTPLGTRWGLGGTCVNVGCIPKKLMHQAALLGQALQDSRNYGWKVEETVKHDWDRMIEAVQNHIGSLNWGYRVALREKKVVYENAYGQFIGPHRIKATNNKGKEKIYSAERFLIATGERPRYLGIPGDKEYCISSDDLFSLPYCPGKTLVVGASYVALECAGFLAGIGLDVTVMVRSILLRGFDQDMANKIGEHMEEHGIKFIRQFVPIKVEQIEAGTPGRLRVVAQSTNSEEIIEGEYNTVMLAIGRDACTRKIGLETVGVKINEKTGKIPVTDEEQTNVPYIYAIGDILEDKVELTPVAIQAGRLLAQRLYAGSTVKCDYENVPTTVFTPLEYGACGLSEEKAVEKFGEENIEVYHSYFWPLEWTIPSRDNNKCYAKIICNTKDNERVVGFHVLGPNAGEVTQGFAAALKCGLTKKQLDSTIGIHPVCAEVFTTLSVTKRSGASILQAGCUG
Experimental: Thioredoxin reductase was purified from human placenta as previously described (Oblong, J.E.; Gasdaska, P.Y.; Sherrill, K.; Powis,G. Biochemistry 1993, 32, 7271) and recombinant human Trx-1 was prepared as previously described (Gasdaska, P.Y.; Oblong, J.E.; Cotgreave, I.A.; Powis,G. Biochem.Biophys.Acta 1994 ,1218 ,292). TrxR and Trx-1/TrxR activities were measured spectrophotometrically using previously published microtiter plate colorimetric assays, based on the increase in absorbance at 405 nm which occurs as dithionitrobenzoic acid (DTNB) is reduced by the enzyme-mediated transfer of reducing equivalents from NADPH (Gasdaska et al., Biochem.Biophys.Acta 1994 ,1218,292). Trx-1/TrxR-dependent insulin reducing activity was measured in an incubation with a final volume of 60 μL containing 100 mM HEPES buffer, pH 7.2,5 mM EDTA (HE buffer),1 mM NADPH, […],0.8 μM Trx-1 and 2.5 mg/mL bovine insulin. Incubations were for 30 min at 37 ° C. in flat-bottom 96-well microtiter plates. The reaction was stopped by the addition of 100 μL of 6 M guanidine-HC1, 50 mM Tris, pH 8.0, and 10 mM DTNB, and the absorbance measured to 405 nm. TrxR activity was measured in a final incubation volume of 60 μL containing HE buffer, 10 mM DTNB, 1.0 μM TrxR and 1 mM NADPH. Compounds were diluted in HE buffer and added to the wells as 20 μL aliquots, and TrxR was then added,also as 20 μL aliquots in HE buffer. To start the reaction NADPH and DTNB were added as a 20 μL aliquot in HE buffer and the plate was moved to the plate reader which had been preheated to 37 ° C. The optical density at 405 nm was measured every 10 s and initial reaction rates were measured.

## O=C1C=CC2(Oc3cccc4cccc(c34)O2)c2cccc(OCc3ccncc3)c21 [SR-13, 8-(pyridin-4-ylmethoxy)-1-oxo-1,4-dihydronaphthalene-4-spiro-2′-naphtol [1″,8″-de][1′,3′] dioxin]
MCF-7 cells; Homo sapiens, MCF7, 72 h
  IC50: 8 µM
Trx-1/TrxR
  IC50: > 50 µM

## O=C1C=CC2(OCCO2)c2cccc(O)c21 [TH-169]
MCF-7 cells; Homo sapiens, MCF7, 72 h
  IC50: 4.2 µM
Trx-1/TrxR
  Trx-1/TrxR inhibition, in words: maintains significant activity
  fold less active than palmarumycin CP1 on Trx-1/TrxR: approximately 10 fold
  selectivity for Trx-1 over TrxR: approximately 2 fold
  IC50: 3.4 µM

## C/C=C/COc1cccc2c1C(=O)C=CC21Oc2cccc3cccc(c23)O1 [SR-2, (E)-8-(but-2-enyloxy)-1-oxo-1,4-dihydronaphthalene-4-spiro-2′-naphto [1″,8″-de][1′,3′]dioxin]
MCF-7 cells; Homo sapiens, MCF7, 72 h
  IC50: 1.3 µM
Trx-1/TrxR
  IC50: > 50 µM

## C=CCOc1cccc2c1C(=O)C=CC21Oc2cccc3cccc(c23)O1 [SR-14, 8-allyloxy-1-oxo-1,4-dihydronaphthalene-4-spiro-2′-naphto [1″,8″-de][1′,3′] dioxin]
MCF-7 cells; Homo sapiens, MCF7, 72 h
  IC50: 2 µM
Trx-1/TrxR
  IC50: 23.2 µM

## O=C1C=CC2(Oc3cccc4cccc(c34)O2)c2cccc(OCc3ccco3)c21 [SR-7, 8-(furan-2-ylmethoxy)-1-oxo-1,4-dihydronaphthalene-4-spiro-2′-naphto [1″,8″-de][1′,3′] dioxin]
MCF-7 cells; 72 hours
  IC50: 1.1 µM
MCF-7 cells; Homo sapiens, MCF7, 72 h
  IC50: 1 to 2 µM
Trx-1/TrxR
  IC50: > 50 µM

## O=C1C=CC2(Oc3cccc4cccc(c34)O2)c2cccc(OC/C=C/c3ccccc3)c21 [SR-1, (E)-8-(3-phenyl-allyloxy)-1-oxo-1,4-dihydronaphthalene-4-spiro-2′-naphto[1″, 8″-de] [1′,3′] dioxin]
MCF-7 cells; Homo sapiens, MCF7, 72 h
  IC50: 7.9 µM
Trx-1/TrxR
  IC50: > 50 µM

## O=C1C=CC2(Oc3cccc4cccc(c34)O2)c2cccc(OCc3cccnc3)c21 [SR-12, 8-(pyridin-3-ylmethoxy)-1-oxo-1,4-dihydronaphthalene-4-spiro-2′-naphto [1″,8″-de][1′,3′] dioxin]
MCF-7 cells; Homo sapiens, MCF7, 72 h
  IC50: 1.5 µM
Trx-1/TrxR
  IC50: > 50 µM

## COc1ccc(COc2cccc3c2C(=O)C=CC32Oc3cccc4cccc(c34)O2)cc1 [TH-39, 8-(4-methoxy-benzyloxy)-1-oxo-1,4-dihydronaphthalene4-spiro-2-naphto [1,8-de][1, 3]dioxin]
MCF-7 cells; Homo sapiens, MCF7, 72 h
  IC50: 0.7 µM
Trx-1/TrxR
  IC50: > 50 µM

## COc1cccc(COc2cccc3c2C(=O)C=CC32Oc3cccc4cccc(c34)O2)c1 [SR-5, 8-(3-methoxy-benzyloxy)-1-oxo-1,4-dihydronaphthalene-4-spiro-2′-naphto [1″,8″-de][1′,3′] dioxin]
MCF-7 cells; Homo sapiens, MCF7, 72 h
  IC50: 2.3 µM
Trx-1/TrxR
  IC50: > 50 µM

## O=C1C=CC2(Oc3cccc4cccc(c34)O2)c2cccc(OCc3ccoc3)c21 [SR-10, 8-(furan-3-ylmethoxy)-1-oxo-1,4-dihydronaphthalene-4-spiro-2′-naphto [1′,8′-de][1′,3′] dioxin]
MCF-7 cells; Homo sapiens, MCF7, 72 h
  IC50: 2 µM
Trx-1/TrxR
  IC50: 23.2 µM

## CC(C)=CCC/C(C)=C/COc1cccc2c1C(=O)C=CC21Oc2cccc3cccc(c23)O1 [SR-9, (E,E)-8-(3,7-diemthyl-octa-2,6-dienyloxy)-1-oxo-1,4-dihydronaphthalene-4-spiro-2′-naphtol [1″,8″-de][1′,3′] dioxin]
MCF-7 cells; Homo sapiens, MCF7, 72 h
  IC50: 4.6 µM
Trx-1/TrxR
  IC50: > 50 µM

## O=C1C=CC2(Oc3cccc4cccc(c34)O2)c2cccc(OCCc3ccccc3)c21 [SR-6, 8-(2-phenyl-ethoxy)-1-oxo-1,4-dihydronaphthalene-4-spiro-2′-naphto [1″,8″-de][1′,3′] dioxin]
MCF-7 cells; Homo sapiens, MCF7, 72 h
  IC50: 3.9 µM
Trx-1/TrxR
  IC50: > 50 µM

## O=C1C=CC2(Oc3cccc4cccc(c34)O2)c2cccc(O)c21 [palmarumycin CP1, 8-hydroxy-1-oxo-1,4-dihydronaphthalene-4-spiro-2′-naphtho[1″,8″-de] [1′,3′] dioxin, reference compound]
MCF-7 cells; 72 hours
  IC50: 1 µM
MCF-7 cells; Homo sapiens, MCF7, 72 h
  IC50: 1 to 2 µM
Trx-1/TrxR
  selectivity for Trx-1 over TrxR: > 30 fold
  IC50: 0.35 µM

## CCCCCCOc1cccc2c1C(=O)C=CC21Oc2cccc3cccc(c23)O1 [SR-3, 8-hexyloxy-1-oxo-1,4-dihydronaphthalene-4-spiro-2′-naphto [1″,8″-de] [1′,3′] dioxin]
MCF-7 cells; Homo sapiens, MCF7, 72 h
  IC50: 13.4 µM
Trx-1/TrxR
  IC50: > 50 µM

## O=C1C=CC2(Oc3cccc4cccc(c34)O2)c2cccc(OCc3ccccn3)c21 [SR-11, 8-(pyridin-2-ylmethoxy)-1-oxo-1,4-dihydronaphthalene-4-spiro-2′-naphto [1″,8″-de][1′,3′] dioxin]
MCF-7 cells; Homo sapiens, MCF7, 72 h
  IC50: 2 µM
Trx-1/TrxR
  IC50: 41.8 µM

## COc1cccc2c1C(=O)C=CC21OCCCO1 [TH-223]
MCF-7 cells; 72 hours
  IC50: 4.4 µM
Trx-1/TrxR
  Trx-1/TrxR inhibition, in words: practically inactive
  IC50: 40.2 µM
